Drawing on patent US20190375708A1 (VenatoRx Pharmaceuticals, Inc., priority 2018, published 2019), this text covers EC50 and CC50 for 25 compounds.

In data set [1] the test system is HBV replication in HepAD38 cells. Description: Anti-HBV replication assay in HepAD38 cells (QPCR of extracellular HBV DNA). It counts as cell-based, HBV (genotype D, serotype ayw). The conditions noted are these: Hepatitis B virus, 168 h, 7 days incubation, extracellular HBV DNA by QPCR, read-out: Anti-HBV EC50. A digest of the protocol: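 Tet-off HepAD38, 7-day compound exposure ([…], 1 log10 steps, DMSO vehicle), 37 °C. Extracellular HBV DNA by QPCR, copies/mL via standard curve, % inhibition vs vehicle, EC50 by 4-parameter regression. Entecavir as positive control.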

The nature of data set [2]: In vitro cytotoxicity assay (MTT cell viability) in HepG2 cells. It counts as cell-based, human. The following applies: human. A digest of the protocol: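 HepG2 seeded overnight, then 7-day compound exposure (30 μM–1.0 nM, half-log steps), 37 °C. MTT 3-4 h, DMSO solubilization, A492. % of vehicle → CC50, 4-PL fit.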

By EC50 is commonly meant the concentration needed to bring the measured effect to its halfway point. Usually CC50 stands for the concentration at which the toxic effect on the cells reaches its halfway point. A higher CC50 goes with better tolerance by the cells. As for `Cc1cc(NC(=O)c2c(Cl)c(C(=O)C(=O)NC(C)(C)CO)n3c2CCC3)cnc1F` [Example 575, 6-chloro-N-(6-fluoro-5-methylpyridin-3-yl)-5-(2-((1-hydroxy-2-methylpropan-2-yl)amino)-2-oxoacetyl)-2,3-dihydro-1H-pyrrolizine-7-carboxamide], the EC50 in data set [1] was in the range of 500 to 1000 nM. This compound came in with a CC50 at 7 days in data set [2] of more than 30000 nM.
As to `Cc1cc(NC(=O)c2c(C)c(C(=O)C(=O)NC3CCOCC3(C)C)n(C)c2C)ccc1F` (centres unmarked) [Example 281], the 50% effective concentration (EC50) in data set [1] was less than 50 nM. Besides, the CC50 at 7 days in data set [2] fell in the range of 5000 to 30000 nM.
On to `Cc1cc(NC(=O)c2c(C)c(C(=O)C(=O)NC3(c4noc(C5CC5)n4)CCCC3)n(C)c2C)ccc1F` [Example 637, 5-(2-((1-(5-cyclopropyl-1,2,4-oxadiazol-3-yl)cyclopentyl)amino)-2-oxoacetyl)-N-(4-fluoro-3-methylphenyl)-1,2,4-trimetthyl-1H-pyrrole-3-carboxamide], for which the EC50 in data set [1] is less than 50 nM. This compound also registered a CC50 at 7 days in data set [2] of more than 30000 nM.
Taken in the same sequence, the figures for `O=C(NC1(CO)CCC1)C(=O)c1c(Cl)c(C(=O)Nc2ccc(F)c(Cl)c2)c2n1CCC2` [Example 565, 6-chloro-N-(3-chloro-4-fluorophenyl)-5-(2-((1-(hydroxymethyl)cyclobutyl)amino)-2-oxoacetyl)-2,3-dihydro-1H-pyrrolizine-7-carboxamide] were less than 50 nM and 5000 to 30000 nM.
Taken in the same sequence, the figures for `COCC(C)(C)NC(=O)C(=O)c1c(C)c(C(=O)Nc2ccc(F)nc2)c(C)n1C` [Example 168, N-(6-fluoropyridin-3-yl)-5-(2-((1-methoxy-2-methylpropan-2-yl)amino)-2-oxoacetyl)-1,2,4-trimethyl-1H-pyrrole-3-carboxamide] were 50 to 499 nM and more than 30000 nM.
On the same counts, the results for `Cc1cc(NC(=O)c2c(C)c(C(=O)C(=O)N[C@H]3CCCN(S(C)(=O)=O)C3)n(C)c2C)ccc1F` [Example 642, (S)-N-(4-fluoro-3-methylphenyl)-1,2,4-trimethyl-5-(2-((1-(methylsulfonyl)piperidin-3-yl)amino)-2-oxoacetyl)-1H-pyrrole-3-carboxamide] are less than 50 nM and 5000 to 30000 nM.
`Cc1c(C(=O)Nc2ccc(F)c(Cl)c2)c(C)n(C)c1C(=O)C(=O)NC(C)(C)CO` [Example 189, N-(3-chloro-4-fluorophenyl)-5-(2-((1-hydroxy-2-methylpropan-2-yl)amino)-2-oxoacetyl)-1,2,4-trimethyl-1H-pyrrole-3-carboxamide]: in data set [1], the EC50 was less than 50 nM. The compound further came in with a CC50 at 7 days in data set [2] of more than 30000 nM.
For the compound `Cc1c(C(=O)Nc2ccc(F)c(F)c2)c2n(c1C(=O)C(=O)NCCN)CCCC2` [Example 741, 3-(2-((2-aminoethyl)amino)-2-oxoacetyl)-N-(3,4-difluorophenyl)-2-methyl-5,6,7,8-tetrahydroindolizine-1-carboxamide], the EC50 in data set [1] fell in the range of 50 to 499 nM. In addition, in data set [2], the CC50 at 7 days is more than 30000 nM.
On the same counts, the results for `Cc1noc([C@@H](C)NC(=O)C(=O)c2c(Cl)c(C(=O)Nc3ccc(F)c(Cl)c3)c3n2CCC3)n1` [Example 554, (R)-6-chloro-N-(3-chloro-4-fluorophenyl)-5-(2-((1-(3-methyl-1,2,4-oxadiazol-5-yl)ethyl)amino)-2-oxoacetyl)-2,3-dihydro-1H-pyrrolizine-7-carboxamide] are less than 50 nM and 5000 to 30000 nM.
On the same counts, the results for `CC(C)(O)CNC(=O)C(=O)c1c(Cl)c(C(=O)Nc2ccc(F)c(F)c2)c2n1CCC2` [Example 560, 6-chloro-N-(3,4-difluorophenyl)-5-(2-((2-hydroxy-2-methylpropyl)amino)-2-oxoacetyl)-2,3-dihydro-1H-pyrrolizine-7-carboxamide] are less than 50 nM and more than 30000 nM.
Taken in the same sequence, the figures for `Cc1noc([C@H](C)NC(=O)C(=O)c2c(C)c(C(=O)Nc3ccc(F)c(F)c3)c3n2CCCC3)n1` [Example 464, (S)-N-(3,4-difluorophenyl)-2-methyl-3-(2-((1-(3-methyl-1,2,4-oxadiazol-5-yl)ethyl)amino)-2-oxoacetyl)-5,6,7,8-tetrahydroindolizine-1-carboxamide] were 50 to 499 nM and more than 30000 nM.
As for `Cc1cc(NC(=O)c2c(C)c(C(=O)C(=O)N[C@H]3C[C@H](O)C3)n3c2CCCC3)ccc1F` [Example 438, N-(4-fluoro-3-methylphenyl)-3-(2-(((1r,3r)-3-hydroxycyclobutyl)amino)-2-oxoacetyl)-2-methyl-5,6,7,8-tetrahydroindolizine-1-carboxamide], the EC50 in data set [1] was in the range of 50 to 499 nM. Besides, the CC50 at 7 days in data set [2] was more than 30000 nM.
Turning to `Cc1cc(NC(=O)c2c(C)c(C(=O)C(=O)N[C@@H]3CCC[C@H](O)C3)n(C)c2C)ccc1F` [Example 330, N-(4-fluoro-3-methylphenyl)-5-(2-(((1R,3S)-3-hydroxycyclohexyl)amino)-2-oxoacetyl)-1,2,4-trimethyl-1H-pyrrole-3-carboxamide], the EC50 in data set [1] was less than 50 nM. In data set [2], the CC50 at 7 days was more than 30000 nM.
Taken in the same sequence, the figures for `Cc1cc(NC(=O)c2c(C)c(C(=O)C(=O)NC3CCSCC3)n(C)c2C)ccc1F` [Example 223, N-(4-fluoro-3-methylphenyl)-1,2,4-trimethyl-5-(2-oxo-2-((tetrahydro-2H-thiopyran-4-yl)amino)acetyl)-1H-pyrrole-3-carboxamide] were less than 50 nM and 5000 to 30000 nM.
On the same counts, the results for `Cc1cc(NC(=O)c2c(C)c(C(=O)C(=O)N[C@H]3COC[C@@H]3O)n(C)c2C)ccc1F` [Example 128, N-(4-fluoro-3-methylphenyl)-5-(2-(((3S,4R)-4-hydroxytetrahydrofuran-3-yl)amino)-2-oxoacetyl)-1,2,4-trimethyl-1H-pyrrole-3-carboxamide] are less than 50 nM and more than 30000 nM.
On the same counts, the results for `Cc1cc(NC(=O)c2c(C)c(C(=O)C(=O)N[C@H]3CC[C@@](O)(C(F)(F)F)CC3)n(C)c2C)ccc1F` [Example 207, N-(4-fluoro-3-methylphenyl)-5-(2-(((1r,4r)-4-hydroxy-4-(trifluoromethyl)cyclohexyl)amino)-2-oxoacetyl)-1,2,4-trimethyl-1H-pyrrole-3-carboxamide] are less than 50 nM and more than 30000 nM.
Take `Cc1cc(NC(=O)c2c(C)c(C(=O)C(=O)N[C@H](C)CCO)n(C)c2C)ccc1F` [Example 141, (R)-N-(4-fluoro-3-methylphenyl)-5-(2-((4-hydroxybutan-2-yl)amino)-2-oxoacetyl)-1,2,4-trimethyl-1H-pyrrole-3-carboxamide]: in data set [1], the EC50 is less than 50 nM. This compound also showed a CC50 at 7 days in data set [2] of more than 30000 nM.
On the same counts, the results for `Cc1cc(NC(=O)c2c(C)c(C(=O)C(=O)NC(C)(C)c3nc(CN(C)C)no3)n(CCF)c2C)ccc1F` [Example 202, 5-(2-((2-(3-((dimethylamino)methyl)-1,2,4-oxadiazol-5-yl)propan-2-yl)amino)-2-oxoacetyl)-N-(4-fluoro-3-methylphenyl)-1-(2-fluoroethyl)-2,4-dimethyl-1H-pyrrole-3-carboxamide] are 50 to 499 nM and more than 30000 nM.
`Cc1cc(NC(=O)c2c(C)c(C(=O)C(=O)NC3CCCN(C)CC3)n(C)c2C)ccc1F` (centres unmarked) [Example 353, N-(44-fluoro-3-methylphenyl)-1,2,4-trimethyl-5-(2-((1-methylazepan-4-yl)amino)-2-oxoacetyl)-1H-pyrrole-3-carboxamide]: in data set [1], the EC50 lay within 50 to 499 nM. Moreover, the CC50 at 7 days in data set [2] is more than 30000 nM.
Taken in the same sequence, the figures for `Cc1cc(NC(=O)c2c(C)c(C(=O)C(=O)Nc3ccc(F)nc3)n(C)c2C)ccc1F` [Example 212, N-(4-fluoro-3-methylphenyl)-5-(2-((6-fluoropyridin-3-yl)amino)-2-oxoacetyl)-1,2,4-trimethyl-1H-pyrrole-3-carboxamide] were less than 50 nM and 5000 to 30000 nM.
As for `Cc1c(C(=O)Nc2ccc(F)nc2)c(C)n(C)c1C(=O)C(=O)NC(C)C(F)(F)F` (centres unmarked) [Example 119, N-(6-fluoropyridin-3-yl)-1,2,4-trimethyl-5-(2-oxo-2-((1,1,1-trifluoropropan-2-yl)amino)acetyl)-1H-pyrrole-3-carboxamide], the EC50 in data set [1] was less than 50 nM. The compound also registered a CC50 at 7 days in data set [2] of more than 30000 nM.
As for `Cc1c(C(=O)Nc2ccn(C)n2)c2n(c1C(=O)C(=O)NC(C)(C)CO)CCCC2` [Example 756, 3-(2-((1-hydroxy-2-methylpropan-2-yl)amino)-2-oxoacetyl)-2-methyl-N-(1-methyl-1H-pyrazol-3-yl)-5,6,7,8-tetrahydroindolizine-1-carboxamide], in data set [1], the EC50 lay within 50 to 499 nM. In data set [2], this compound displayed a CC50 at 7 days of more than 30000 nM.
In the case of `Cc1c(C(=O)Nc2ccc(F)cn2)c(C)n(C)c1C(=O)C(=O)NC12CC3CC(CC1C3)C2` [Example 135, N-(5-fluoropyridin-2-yl)-5-(2-(((2R,3as,5S,6as)-hexahydro-2,5-methanopentalen-3a(1H)-l)amino)-2-oxoacetyl)-1,2,4-trimethyl-1H-pyrrole-3-carboxamide], the EC50 in data set [1] was 50 to 499 nM. In data set [2], this compound gave a CC50 at 7 days of 5000 to 30000 nM.
For the compound `Cc1cc(NC(=O)c2c(C)c(C(=O)C(=O)NCc3cnc(N)s3)n3c2CCCC3)cnc1F` [Example 473, 3-(2-(((2-aminothiazol-5-yl)methyl)amino)-2-oxoacetyl)-N-(6-ffluoro-5-methylpyridin-3-yl)-2-methyl-5,,6,7,8-tetrahydroindolizine--1 carboxamide], the EC50 in data set [1] lay within 500 to 1000 nM. The CC50 at 7 days in data set [2] was more than 30000 nM.
In the case of `Cc1cc(Cl)cc(NC(=O)c2c(C)c(C(=O)C(=O)N[C@@H]3CCC[C@@H](O)C3)n(C)c2C)c1` [Example 688, N-(3-chloro-5-methylphenyl)-5-(2-(((1R,3R)-3-hydroxycyclohexyl)amino)-2-oxoacetyl)-1,2,4-trimethyl-1H-pyrrole-3-carboxamide], in data set [1], the EC50 is less than 50 nM. In data set [2], this compound showed a CC50 at 7 days of more than 30000 nM.
